From US20170151256A1, “ANTITUMOR AGENT” (ZERIA PHARMACEUTICAL CO., LTD., priority 2005, published 2017)
Where a name gives a salt, the structure may show the parent alone. Read-outs that look alike come from different tables or passages of the source.

Columns and labels:
[1] = system: human colon cancer cells (HT-29); assay: HT-29 subcutaneous xenograft, alone and in combination with 5-FU; format: in vivo, mouse
Procedure: 1×10^6 cells of human colon cancer cells (HT-29) were subcutaneously implanted into right abdomen of female Balb/c nude mice. […] For comparison, 5-FU was intraperitoneally administered to mice in positive control groups at doses of 3, 10, and 30 mg/kg once daily for 12 days. […] On the day following the final administration, the tumor was removed and weighed. […] Percent inhibition of tumor growth was calculated based on the tumor weights in each administration groups versus that in a control group.

[2] = system: human pancreatic cancer cells (PANC-1); assay: PANC-1 implanted into pancreas, lethal model, survival with gemcitabine combination (Table 1); format: in vivo, mouse; conditions: female SCID mice, compound A1 100 mg/kg oral once daily from day 7, GEM 100 mg/kg i.v. days 7, 10, 14
Procedure: (§1) A small piece (70 to 80 mg) of human pancreatic cancer cells (PANC-1) was implanted into the pancreas of female SCID mice (15 mice for each group). […] In another group of mice, on seven, 10, and 14 days after implantation, gemcitabine hydrochloride (Gemzar Injection®) was intravenously administered at a dose of 100 mg/kg.

[3] = system: human pancreatic cancer cells (PANC-1); assay: PANC-1 implanted into pancreas, lethal model, survival rate; format: in vivo, mouse; conditions: gemcitabine hydrochloride 100 mg/kg i.v. on days 7, 10, 14 after implantation; 40 days after administration start (46 days after implantation); female SCID mice (control […])
Procedure: as §1, with “after the” for “after”, “Injection®) as a positive control” for “Injection®)”, “injected” for “administered”

[4] = system: human pancreatic cancer cells (PAN1VC); assay: PAN1VC implanted into pancreas, tumor weight, alone and with gemcitabine; format: in vivo, mouse; conditions: male nude mice
Procedure: 1×10^6 cells of human pancreatic cancer cells (PAN1VC) were implanted into the pancreas of male nude mice. […] Percent inhibition of tumor growth was calculated based on the tumor weights in each administration groups versus that in a control group.

[5] = system: human colon cancer xenograft; conditions: Non-Patent Document 14, cited from earlier work
[6] = Toxicity test through 28-day repeated oral administration to rats; format: in vivo
[7] = system: human pancreatic cancer cells (MIAPaCa 2); assay: MIAPaCa 2 subcutaneous xenograft, tumor weight; format: in vivo, mouse; conditions: female Balb/c nude mice
Procedure: 3×10^6 cells of human pancreatic cancer cells (MIAPaCa 2) were subcutaneously implanted into right abdomen of female Balb/c nude mice. […] On the day following the final administration, the tumor was removed and weighed. For comparison, vehicle was orally administered to mice in a control group, and the tumor weight was measured in similar manner to that described above. Percent inhibition of tumor growth was calculated based on the tumor weights in each administration group versus that in a control group.

[8] = Toxicity test through 28-day repeated oral administration to dogs; format: in vivo
[9] = system: human colon cancer cells (C170HM2); assay: C170HM2 intraperitoneal model, tumor metastasis to the liver; format: in vivo, mouse; conditions: 40 days after implantation, male nude mice
Procedure: 1.5×10^6 cells of human colon cancer cells (C170HM2) were intraperitoneally injected into male nude mice. […] Meanwhile, in a positive control group, the combination of 5-fluorouracil (hereinafter called “5-FU”) and leucovorin were intravenously administered (for each compound, 25 mg/kg/injection) one, four, seven, and 10 days after tumor implantation. Forty days after implantation of C170HM2 tumor, the weight of tumor-metastasized liver was measured.

[10] = system: human colon cancer cells (HT-29); assay: HT-29 subcutaneous xenograft, tumor weight; format: in vivo, mouse; conditions: female Balb/c nude mice
Procedure: 1×10^6 cells of human colon cancer cells (HT-29) were subcutaneously implanted into right abdomen of female Balb/c nude mice. […] On the day following the final administration, the tumor was removed and weighed. In a control group, vehicle was orally administered to mice, and the tumor weight was measured in similar manner to that described above. Percent inhibition of tumor growth was calculated based on the tumor weights in each administration groups versus that in a control group.

[11] = system: pancreatic cancer or colon cancer xenograft; conditions: only observed at a high dose of 200 mg/kg or more; Patent Document 1; cited from earlier work
[12] = system: human pancreatic cancer PANC-1; conditions: Non-Patent Document 12, cited from earlier work
[13] = 30, 100, 300 or 1,000 mg/kg oral for 28 days, male and female SD rats, any group
[14] = 30, 100, 300 or 1,000 mg/kg oral for 28 days, male and female beagle dogs, any group
[15] = rats, 1,000 mg/kg for 28 consecutive days (summary statement)
[16] = dogs, 1,000 mg/kg for 28 consecutive days (summary statement)

O=c1[nH]cc(F)c(=O)[nH]1 [5-FU, 5-fluorouracil]
Percent inhibition of tumor growth (tumor weight vs control) ([1]; 5-FU alone, 3 mg/kg i.p. once daily for 12 days): 24%
Percent inhibition of tumor growth (tumor weight vs control) ([1]; 5-FU alone, 10 mg/kg i.p. once daily for 12 days): 30%
Percent inhibition of tumor growth (tumor weight vs control) ([1]; 5-FU alone, 30 mg/kg i.p. once daily for 12 days): 58%

Nc1ccn([C@@H]2O[C@H](CO)[C@@H](O)C2(F)F)c(=O)n1 [gemcitabine hydrochloride]
Survival rate at 60 days after initiation of administration (66 days after implantation) ([2]; alone or combined (control 0)): 0%
Median survival time ([2]; alone or combined (control 39)): 48 days
Survival rate at 50 days after initiation of administration (56 days after implantation) ([2]; alone or combined (control 40)): 20%
Average survival time ([2]; alone or combined (control 43)): 46.9 days
Days of death of the last individual ([2]; alone or combined (control 56)): 54 days
Survival rate [3]: 93.3%
Percent inhibition of tumor growth (tumor weight vs control) ([4]; gemcitabine hydrochloride alone, 5 mg/kg i.v. on days 1, 3, 6 after implantation): 32%

C[C@](Cc1c[nH]c2ccccc12)(NC(=O)OC1[C@H]2C[C@@H]3C[C@@H](C[C@H]1C3)C2)C(=O)NC[C@H](NC(=O)CCC(=O)O)c1ccccc1 (some centres unmarked) [CI-988]
Cell growth suppressive effect ([5]; oral 25 mg/kg, without non-physiological gastrin stimulation): exhibits cell growth suppressive effect
Cell growth suppressive effect ([5]; oral 50 mg/kg): exhibits no cell growth suppressive effect

calcium (R)-(−)-3-[3-(1-tert-butylcarbonylmethyl-2-oxo-5-cyclohexyl-1,3,4,5-tetrahydro-2H-1,5-benzodiazepin-3-yl)ureido]benzoate [compound A1]
Abnormality in body weight, feed intake, ophthalmological test, urine test, organ weight, autopsy finding, histopathological test [6, 13]: no abnormality was found
Deaths [6, 13]: no deaths were observed
Percent inhibition of tumor growth (tumor weight vs control) ([7]; 30 mg/kg oral once daily for 21 days): 40%
Percent inhibition of tumor growth (tumor weight vs control) ([7]; 100 mg/kg oral once daily for 21 days): 42%
Percent inhibition of tumor growth (tumor weight vs control) ([1]; compound A1 alone, 30 mg/kg oral once daily for 12 days from 10 days after implantation): 34%
Abnormality in body weight, feed intake, ophthalmological test, electrocardiogram, blood pressure, urine test, hematological test, blood biochemical test, organ weight, autopsy finding [8, 14]: no abnormality was found
Deaths [8, 14]: no deaths were observed
Inhibition of tumor metastasis to the liver (weight of tumor-metastasized liver) ([9]; 3 mg/kg oral once daily): 73%
Inhibition of tumor metastasis to the liver (weight of tumor-metastasized liver) ([9]; 30 mg/kg oral once daily): 81%
Percent inhibition of tumor growth (tumor weight vs control) ([4]; compound A1 alone, 30 mg/kg oral once daily for 36 days): 19%
Percent inhibition of tumor growth (tumor weight vs control) ([4]; compound A1 alone, 100 mg/kg oral once daily for 36 days): 23%
Percent inhibition of tumor growth (tumor weight vs control) ([10]; 30 mg/kg oral once daily for 17 days from 4 days after implantation): 44%
Percent inhibition of tumor growth (tumor weight vs control) ([10]; 100 mg/kg oral once daily for 17 days from 4 days after implantation): 50%

CNc1cccc(NC(=O)N[C@@H]2N=C(c3ccccn3)c3ccccc3N(CC(=O)C(C)(C)C)C2=O)c1 [YF476]
Tumor-shrinking effect [11]: exhibits tumor-shrinking effect

Cc1cccc(NC(=O)N[C@@H]2N=C(c3ccccc3)c3ccccc3N(C)C2=O)c1 [L-365,260]
Gastrin-induced tumor growth ([12]; with gastrin stimulation): suppresses gastrin-induced tumor growth
Tumor growth without stimulation by gastrin ([12]; without gastrin stimulation): does not suppress tumor growth

CC(C)(C)C(=O)CN1C(=O)[C@H](NC(=O)Nc2cccc(C(=O)O)c2)CN(C2CCCCC2)c2ccccc21 [compound A, (R)-(−)-3-[3-(1-tert-butylcarbonylmethyl-2-oxo-5-cyclohexyl-1,3,4,5-tetrahydro-2H-1,5-benzodiazepin-3-yl)ureido]benzoic acid]
Abnormality in body weight, feed intake, ophthalmological test, urine test, organ weight, autopsy finding, histopathological test [6, 15]: no abnormality was found
Deaths [6, 15]: no deaths were observed
Abnormality in body weight, feed intake, ophthalmological test, urine test, organ weight, autopsy finding, histopathological test [8, 16]: no abnormality was found
Deaths [8, 16]: no deaths were observed
